Earlier results as cited in US20150223465A1, “COMPOSITION CONTAINING 3-CYCLOPROPYL-1-ENYL-PROPANOIC ACID SALTS AND A CARRIER” (Yissum Research Development Company of the Hebrew …, priority 2012, published 2015).

How the values were obtained:
[1] = system: cut mini carnation flowers; conditions: cited from earlier work; for inhibition of the action of ethylene: applied as aqueous solutions to cut mini carnation flowers; for activity as plant ethylene antagonist: in a vapor phase
cut flowers = conditions: cited from earlier work

## CC1=CC1C(=O)O (stereo not drawn) [2-methylcycloprop-2-ene-1-carboxylic acid]
[1]
  inhibition of the action of ethylene: did not inhibit
  activity as plant ethylene antagonist: active

## O=C(O)CCC1=CC1 [3-cycloprop-1-en-1-ylpropanoic acid]
[1]
  inhibition of the action of ethylene: did not inhibit
  activity as plant ethylene antagonist: active

## O=C([O-])O.[Na+] [NaHCO3, sodium bicarbonate]
Cut flowers; about 1.5 mM NaHCO3 combined with CuSO4
  effect on fresh weight of cut flowers during vase life: positively affected
Cut flowers; in vase water of cut flowers
  effect on hydraulic stem resistance or transpiration rate: no effect

## O=C(O)C1C=C1 [cycloprop-2-ene-1-carboxylic acid]
[1]
  inhibition of the action of ethylene: did not inhibit
  activity as plant ethylene antagonist: active

## CC(C)N.O=C(O)CCC1=CC1 [propan-2-aminium 3-cycloprop-1-en-1-ylpropanoate]
[1]
  inhibition of the action of ethylene: some ethylene sensitivity but the test results were variable
